Measurements as given in the supplement of paper PMC12076712.

Columns and labels:
Experiment in all cases: pIC50, competition of probe 3 labelling in live cells
Conditions in all cases: cell material: Jurkat cells
LIMK2 = LIMK2 (UniProt P53671)
RPS6KA4 = RPS6KA4 (UniProt O75676)
UniProt Q14289 = target: UniProt Q14289
STK35 = STK35 (UniProt Q8TDR2)
CDKL5 = target: T1, CDKL5 (UniProt O76039)
T1 sequence (whole entry): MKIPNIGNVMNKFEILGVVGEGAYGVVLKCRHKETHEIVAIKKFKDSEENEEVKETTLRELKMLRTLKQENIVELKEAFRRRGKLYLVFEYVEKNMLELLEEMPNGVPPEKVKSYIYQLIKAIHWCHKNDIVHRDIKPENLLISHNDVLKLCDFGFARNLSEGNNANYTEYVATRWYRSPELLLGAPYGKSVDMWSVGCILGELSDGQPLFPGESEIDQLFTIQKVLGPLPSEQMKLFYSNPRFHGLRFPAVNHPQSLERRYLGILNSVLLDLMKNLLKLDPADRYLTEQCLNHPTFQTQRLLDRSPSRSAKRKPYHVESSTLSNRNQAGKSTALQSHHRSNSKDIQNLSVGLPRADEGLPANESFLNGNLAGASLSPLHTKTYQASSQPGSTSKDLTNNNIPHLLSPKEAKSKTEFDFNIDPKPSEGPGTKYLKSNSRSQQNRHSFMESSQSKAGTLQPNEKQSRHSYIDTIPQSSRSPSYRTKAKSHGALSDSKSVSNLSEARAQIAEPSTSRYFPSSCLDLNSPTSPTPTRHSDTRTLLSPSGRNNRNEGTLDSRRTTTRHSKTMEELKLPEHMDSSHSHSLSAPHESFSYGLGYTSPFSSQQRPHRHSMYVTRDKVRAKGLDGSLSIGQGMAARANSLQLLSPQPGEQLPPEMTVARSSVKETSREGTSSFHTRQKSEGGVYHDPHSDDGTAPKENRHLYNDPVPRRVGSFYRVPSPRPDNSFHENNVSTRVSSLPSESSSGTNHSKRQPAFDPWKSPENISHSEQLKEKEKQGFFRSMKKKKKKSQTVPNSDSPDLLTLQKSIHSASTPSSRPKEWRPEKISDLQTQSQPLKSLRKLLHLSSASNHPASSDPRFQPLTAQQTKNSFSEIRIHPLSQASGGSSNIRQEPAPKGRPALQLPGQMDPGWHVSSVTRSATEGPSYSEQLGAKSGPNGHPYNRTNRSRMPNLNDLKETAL

MGLL = MGLL (UniProt Q99685)
UniProt O96017 = target: UniProt O96017
NEK9 = target: T2, NEK9 (UniProt Q8TD19)
T2 sequence (whole entry): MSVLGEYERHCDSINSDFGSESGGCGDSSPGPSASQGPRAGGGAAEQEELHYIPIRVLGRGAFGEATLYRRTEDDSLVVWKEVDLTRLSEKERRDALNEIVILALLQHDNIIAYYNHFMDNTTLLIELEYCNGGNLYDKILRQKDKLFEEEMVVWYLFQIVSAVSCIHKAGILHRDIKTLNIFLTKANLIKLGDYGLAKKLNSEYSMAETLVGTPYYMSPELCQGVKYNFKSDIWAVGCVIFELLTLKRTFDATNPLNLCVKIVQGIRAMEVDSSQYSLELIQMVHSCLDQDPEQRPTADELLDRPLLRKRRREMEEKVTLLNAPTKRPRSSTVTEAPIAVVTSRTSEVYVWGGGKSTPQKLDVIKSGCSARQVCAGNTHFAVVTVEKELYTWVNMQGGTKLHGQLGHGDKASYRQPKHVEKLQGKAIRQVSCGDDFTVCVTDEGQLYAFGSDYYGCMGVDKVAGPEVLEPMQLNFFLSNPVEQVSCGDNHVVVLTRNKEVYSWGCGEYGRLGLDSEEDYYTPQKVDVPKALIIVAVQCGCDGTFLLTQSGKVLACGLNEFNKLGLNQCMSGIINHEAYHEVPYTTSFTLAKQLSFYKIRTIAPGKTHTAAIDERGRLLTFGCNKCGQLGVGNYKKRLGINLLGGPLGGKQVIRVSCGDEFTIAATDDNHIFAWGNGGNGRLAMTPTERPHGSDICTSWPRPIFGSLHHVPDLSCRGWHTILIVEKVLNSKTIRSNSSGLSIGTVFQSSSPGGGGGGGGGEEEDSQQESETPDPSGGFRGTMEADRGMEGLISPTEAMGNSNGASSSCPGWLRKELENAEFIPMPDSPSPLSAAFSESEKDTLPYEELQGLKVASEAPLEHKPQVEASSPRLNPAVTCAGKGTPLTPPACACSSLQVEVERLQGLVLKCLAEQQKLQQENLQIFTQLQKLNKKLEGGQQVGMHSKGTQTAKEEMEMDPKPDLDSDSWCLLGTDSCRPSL

IRAK4 = target: T3, IRAK4 (UniProt Q9NWZ3)
T3 sequence (whole entry): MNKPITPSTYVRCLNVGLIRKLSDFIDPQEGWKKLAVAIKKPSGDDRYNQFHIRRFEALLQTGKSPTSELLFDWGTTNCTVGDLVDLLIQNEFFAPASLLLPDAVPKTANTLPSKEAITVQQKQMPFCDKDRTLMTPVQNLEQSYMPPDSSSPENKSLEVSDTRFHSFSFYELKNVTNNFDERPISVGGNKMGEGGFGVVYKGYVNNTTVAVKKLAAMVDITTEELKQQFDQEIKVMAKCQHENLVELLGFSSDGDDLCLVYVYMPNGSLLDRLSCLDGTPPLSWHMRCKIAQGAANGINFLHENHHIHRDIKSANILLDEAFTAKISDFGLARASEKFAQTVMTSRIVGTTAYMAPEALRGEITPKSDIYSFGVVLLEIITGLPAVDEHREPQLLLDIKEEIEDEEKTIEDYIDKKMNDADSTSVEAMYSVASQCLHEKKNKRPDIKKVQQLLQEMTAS

Sequence of RPS6KA4 (O75676 whole entry, looked up): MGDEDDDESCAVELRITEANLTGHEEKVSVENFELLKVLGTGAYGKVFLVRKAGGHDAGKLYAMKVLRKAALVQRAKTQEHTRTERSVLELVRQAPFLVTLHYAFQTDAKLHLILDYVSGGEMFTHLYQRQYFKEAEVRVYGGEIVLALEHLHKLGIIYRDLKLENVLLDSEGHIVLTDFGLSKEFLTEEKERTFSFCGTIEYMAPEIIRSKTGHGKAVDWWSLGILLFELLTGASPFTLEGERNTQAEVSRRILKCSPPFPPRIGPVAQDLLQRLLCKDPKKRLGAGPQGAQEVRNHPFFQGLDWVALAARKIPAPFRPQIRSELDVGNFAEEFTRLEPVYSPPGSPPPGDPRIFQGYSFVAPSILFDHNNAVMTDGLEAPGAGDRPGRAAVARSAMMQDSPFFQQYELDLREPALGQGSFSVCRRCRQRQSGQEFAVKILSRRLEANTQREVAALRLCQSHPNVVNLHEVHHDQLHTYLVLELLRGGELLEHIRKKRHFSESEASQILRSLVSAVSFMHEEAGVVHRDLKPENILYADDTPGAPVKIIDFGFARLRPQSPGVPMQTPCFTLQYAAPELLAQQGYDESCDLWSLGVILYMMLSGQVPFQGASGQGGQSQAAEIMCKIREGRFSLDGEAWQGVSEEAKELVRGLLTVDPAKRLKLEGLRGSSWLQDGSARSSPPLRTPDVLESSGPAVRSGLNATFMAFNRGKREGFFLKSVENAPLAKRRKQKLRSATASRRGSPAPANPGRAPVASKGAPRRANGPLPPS
Sequence of LIMK2 (P53671 whole entry, looked up): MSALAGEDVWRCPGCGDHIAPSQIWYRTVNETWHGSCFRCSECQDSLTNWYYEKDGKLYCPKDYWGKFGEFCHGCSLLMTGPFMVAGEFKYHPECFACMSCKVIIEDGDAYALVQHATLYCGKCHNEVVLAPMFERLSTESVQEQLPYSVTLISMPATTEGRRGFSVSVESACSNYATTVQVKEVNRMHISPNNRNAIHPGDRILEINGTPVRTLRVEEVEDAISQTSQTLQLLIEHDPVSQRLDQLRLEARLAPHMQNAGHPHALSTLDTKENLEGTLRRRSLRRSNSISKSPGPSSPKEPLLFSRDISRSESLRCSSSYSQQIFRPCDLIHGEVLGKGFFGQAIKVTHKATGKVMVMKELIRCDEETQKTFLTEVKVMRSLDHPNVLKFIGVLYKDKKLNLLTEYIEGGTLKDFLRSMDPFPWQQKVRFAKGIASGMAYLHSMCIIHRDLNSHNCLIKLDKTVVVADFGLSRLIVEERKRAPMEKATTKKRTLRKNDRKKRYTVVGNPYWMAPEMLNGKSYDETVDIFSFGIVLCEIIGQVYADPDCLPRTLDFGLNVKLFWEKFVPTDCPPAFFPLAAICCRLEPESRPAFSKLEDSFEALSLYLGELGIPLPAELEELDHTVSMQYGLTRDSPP
Sequence of UniProt Q14289 (Q14289 whole entry, looked up): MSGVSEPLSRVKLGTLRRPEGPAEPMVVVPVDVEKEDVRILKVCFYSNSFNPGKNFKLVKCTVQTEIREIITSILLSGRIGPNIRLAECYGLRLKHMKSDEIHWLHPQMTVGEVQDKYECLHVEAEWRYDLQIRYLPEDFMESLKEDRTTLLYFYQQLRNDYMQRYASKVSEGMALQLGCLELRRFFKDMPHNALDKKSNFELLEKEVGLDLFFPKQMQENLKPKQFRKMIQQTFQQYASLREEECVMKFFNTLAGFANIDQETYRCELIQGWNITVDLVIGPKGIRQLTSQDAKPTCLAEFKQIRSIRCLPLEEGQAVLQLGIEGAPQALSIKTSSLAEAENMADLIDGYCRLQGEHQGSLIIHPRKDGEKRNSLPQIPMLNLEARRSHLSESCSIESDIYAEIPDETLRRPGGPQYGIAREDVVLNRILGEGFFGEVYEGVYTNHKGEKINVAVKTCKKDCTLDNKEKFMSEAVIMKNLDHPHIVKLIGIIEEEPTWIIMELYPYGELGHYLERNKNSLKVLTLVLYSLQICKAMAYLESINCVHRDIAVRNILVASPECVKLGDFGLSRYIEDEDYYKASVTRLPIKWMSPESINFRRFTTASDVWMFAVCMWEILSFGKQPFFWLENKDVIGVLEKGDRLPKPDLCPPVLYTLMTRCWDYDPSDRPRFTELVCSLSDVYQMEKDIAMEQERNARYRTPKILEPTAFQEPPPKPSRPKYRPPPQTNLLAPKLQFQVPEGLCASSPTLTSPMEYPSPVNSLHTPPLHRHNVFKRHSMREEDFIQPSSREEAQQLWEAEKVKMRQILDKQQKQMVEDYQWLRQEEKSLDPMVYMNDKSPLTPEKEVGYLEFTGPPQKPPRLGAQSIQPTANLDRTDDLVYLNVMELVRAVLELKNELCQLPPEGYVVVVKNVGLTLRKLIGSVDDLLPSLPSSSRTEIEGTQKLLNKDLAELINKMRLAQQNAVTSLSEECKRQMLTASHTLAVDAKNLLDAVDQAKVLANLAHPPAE
Sequence of MGLL (Q99685 whole entry): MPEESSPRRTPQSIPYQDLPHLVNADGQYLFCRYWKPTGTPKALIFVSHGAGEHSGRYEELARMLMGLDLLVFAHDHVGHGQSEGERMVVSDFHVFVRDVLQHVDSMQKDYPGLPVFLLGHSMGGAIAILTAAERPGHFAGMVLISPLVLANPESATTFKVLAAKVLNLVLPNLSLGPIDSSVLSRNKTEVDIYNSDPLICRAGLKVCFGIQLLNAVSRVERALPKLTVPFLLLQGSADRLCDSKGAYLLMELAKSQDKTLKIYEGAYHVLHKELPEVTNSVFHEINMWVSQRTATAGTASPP
Sequence of STK35 (Q8TDR2 whole entry): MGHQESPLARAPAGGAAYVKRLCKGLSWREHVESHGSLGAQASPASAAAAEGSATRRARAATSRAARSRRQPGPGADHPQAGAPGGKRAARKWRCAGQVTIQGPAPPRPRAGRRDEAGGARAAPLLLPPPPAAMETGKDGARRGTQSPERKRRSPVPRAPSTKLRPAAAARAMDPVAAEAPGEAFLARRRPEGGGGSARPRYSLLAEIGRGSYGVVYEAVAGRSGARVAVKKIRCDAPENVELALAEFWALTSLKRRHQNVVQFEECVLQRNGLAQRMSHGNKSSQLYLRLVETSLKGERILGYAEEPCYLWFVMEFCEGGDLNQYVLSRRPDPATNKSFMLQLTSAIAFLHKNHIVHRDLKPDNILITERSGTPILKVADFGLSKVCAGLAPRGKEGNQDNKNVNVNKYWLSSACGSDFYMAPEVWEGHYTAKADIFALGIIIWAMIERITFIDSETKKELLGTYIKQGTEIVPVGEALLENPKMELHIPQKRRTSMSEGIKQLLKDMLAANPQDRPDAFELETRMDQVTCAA
Sequence of UniProt O96017 (O96017 whole entry): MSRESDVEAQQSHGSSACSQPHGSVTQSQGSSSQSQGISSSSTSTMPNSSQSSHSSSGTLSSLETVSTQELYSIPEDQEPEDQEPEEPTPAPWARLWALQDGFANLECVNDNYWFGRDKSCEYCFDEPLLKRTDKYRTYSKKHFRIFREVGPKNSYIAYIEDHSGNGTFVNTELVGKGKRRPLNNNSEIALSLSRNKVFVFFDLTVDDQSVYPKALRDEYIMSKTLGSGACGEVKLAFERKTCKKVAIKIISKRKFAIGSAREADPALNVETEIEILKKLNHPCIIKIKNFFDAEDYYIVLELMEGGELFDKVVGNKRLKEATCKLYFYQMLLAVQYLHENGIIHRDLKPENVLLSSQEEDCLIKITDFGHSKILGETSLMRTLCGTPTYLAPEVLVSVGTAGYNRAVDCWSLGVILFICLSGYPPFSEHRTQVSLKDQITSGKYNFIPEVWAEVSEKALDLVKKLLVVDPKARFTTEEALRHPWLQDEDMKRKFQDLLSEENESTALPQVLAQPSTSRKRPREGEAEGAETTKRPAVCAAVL

| pIC50 (LIMK2) | pIC50 (RPS6KA4) | pIC50 (UniProt Q14289) | pIC50 (STK35) | pIC50 (CDKL5) | pIC50 (MGLL) | pIC50 (UniProt O96017) | pIC50 (IRAK4) | SMILES | pIC50 (NEK9) |
| --- | --- | --- | --- | --- | --- | --- | --- | --- | --- |
| < 4.52 | < 4.52 | 4.62 | < 4.52 | < 4.52 | < 4.52 | < 4.52 | < 4.52 | CC#CC(=O)Nc1ccc2ncnc(Nc3cccc(Br)c3)c2c1 [EKI-785] | < 4.52 |
| < 4.52 | < 4.52 | < 4.52 | < 4.52 | 6.12 | < 4.52 | < 4.52 | < 4.52 | CCc1cnn2c(NCc3ccc[n+]([O-])c3)cc(N3CCCC[C@H]3CCO)nc12 [dinaciclib] | < 4.52 |
